# Data reported in patent US8058431B2, “Fluorescent double stranded DNA binding dyes” (Roche Diagnostics Operations, Inc., priority 2006, dated 2011).
# Key:
# genomic DNA = test: Light stability: fluorescence of a mixture of dye and genomic DNA during continuous light exposure; type: physicochemical; settings: for fluorescence during continuous light exposure: dye + genomic DNA
# Procedure: The light stability of R27, which is representative for the nine described dyes, was compared to established dyes already used for such applications. The fluorescence of a mixture of the respective dye and genomic DNA was measured during continuous light exposure.
# [1] = Bleaching of dye solution during a typical PCR protocol on a real-time PCR instrument; type: physicochemical; settings: excitation for fluorescence measurement and repeated temperature changes between 55 and 95° C., LIGHTCYCLER 480
fluorescence during continuous light exposure (genomic DNA; light exposure 0 min) [%],fluorescence during continuous light exposure (genomic DNA; light exposure 10 min) [%],fluorescence during continuous light exposure (genomic DNA; light exposure 30 min) [%],fluorescence during continuous light exposure (genomic DNA; light exposure 60 min) [%],fluorescence during continuous light exposure (genomic DNA; light exposure 180 min) [%],fluorescence during continuous light exposure (genomic DNA; light exposure 300 min) [%],bleaching of the dye [1],light stability compared to established dyes (genomic DNA; versus SYBR Green I and LC Green Plus),Structure (SMILES)
100,87,77,70,40,24,,,"CCCN(CCCN(C)C)c1cc(C=C2Sc3ccccc3N2C)c2ccccc2[n+]1-c1ccccc1 [SYBR Green I, [2-[N-(-3-dimethylaminopropyl)-N-propylamino]-4-[2,3-dihydro-3-methyl-(benzo-1,3-thiazol-2-yl)-methylidene]-1-phenyl-quinolinium]+, reference compound]"
100,99,98,99,97,96,no recognizable bleaching,distinctly higher,COc1cc2c(cc1OC)N(C)C(CCCC[N+](C)(C)C)=N/C2=C\c1sc2ccccc2[n+]1C.[I-].[I-] [R 27]
